“Also recorded” adds a separate entry of the source.
Experiments:
MV4-11 (MLL-AF4) cells [1] = experiment: Cell death / cell kill in MV4-11 cells (Annexin V/7-AAD flow cytometry, CTG, cell count, Incucyte caspase 3/7); format: cell-based; conditions: for cell death in a dose response experiment: single agent dose response
Description: FIG. 2A depicts three experimental conditions: 1) MV4-11 cells were contacted with AZA for three consecutive days, followed by treatment with EPZ-5676 on the second, fourth, sixth, and ninth day; 2) the MV4-11 cells were contacted with vehicle for three consecutive days, followed by treatment with EPZ-5676 on the second, fourth, sixth, and ninth day; and 3) the MV4-11 cells were contacted with vehicle for three consecutive days, followed by contact with vehicle on the second, fourth, sixth, and ninth day.
FIGS. 5A-5F are a series of graphs that depict real-time imaging to study the effect of AZA priming on MV4-11 cells utilizing Incucyte Zoom® for suspension cell imaging. […] The Kinetic Caspase 3/7 reagent was used to assess cell death (FIG. 5B). For these assays, 6,000 cells were plated per well of a 96-well plate and dosed with EPZ-5676 using a ten point concentration gradient starting from 10 μM. 1× caspase dye was then added to each well. FIG. 5C is a series of graphs that depict real-time monitoring of cell death using Caspase 3/7 kinetic dye. […] FIG. 5E is a series of graphs that depict real-time monitoring of AUC Growth by Red object (labeled cell) count. FIG. 5F is a series of graphs that depicts cellular AUC growth following vehicle or AZA priming followed by treatment with EPZ-5676, and control conditions including vehicle alone, DMSO.
In this study of Example 1, the flexibility of treatment schedules when EPZ-5676 was combined with Azacitidine in MLL-r cells was evaluated.
Compounds were evaluated for cell killing effects as single agents and in combination according to the methods described in the experimental setup.

NOMO-1 (MLL-AF9) cells [2] = experiment: Cell death / cell kill in NOMO-1 cells (Annexin V/7-AAD); format: cell-based; conditions: for resistance of cell line to the agent: sensitive is defined as IC50 ≤ 3 μM
Method: (§1) FIGS. 4A-4H are a series of schematics and graphs that depict the effect on cellular differentiation of AZA priming in AML cell lines. […] FIG. 4C depicts AZA dose response curves for an AML cell line panel. […] For the flow cytometry assays, Annexin V/7-AAD staining was used to assess cell death, and CD11b/CD14 antibodies were used to evaluate cellular differentiation. […] Flow cytometry assays were also performed to assess cellular differentiation and cell death following AZA priming followed by treatment of the cells with 0.5 μM EPZ-5676.

ML-2 (MLL-AF6) cells [3] = experiment: Cell death / cell kill in ML-2 cells; format: cell-based; conditions: for cell death: 0.5 μM EPZ-5676, day not given
ML-2 (MLL-AF6) cells [4] = experiment: Cellular differentiation assay in ML-2 cells; format: cell-based; conditions: for cellular differentiation (CD14+ differentiated cell population): 0.5 μM EPZ-5676, day not given
RS4;11 (MLL-AF4) cells [5] = experiment: Cell death / cell kill in RS4;11 cells; format: cell-based; conditions: for cell death / cell kill: 0.5 μM EPZ-5676, day not given
RS4;11 (MLL-AF4) cells [6] = experiment: Cellular differentiation assay in RS4;11 cells; format: cell-based; conditions: for cellular differentiation: 0.5 μM EPZ-5676, day not given
MV4-11 tumors = experiment: MV4-11 subcutaneous xenograft efficacy study in nude rats; format: in vivo, rat; conditions: single agent at the MTD (Azacitidine 2 mg/kg, Cytarabine 200 mg/kg), intraperitoneal once daily for 14 days
Method: (§2) To follow up on these findings and to determine if combinations were tolerable and efficacious in vivo, nude rats implanted subcutaneously with MV4-11 tumors were dosed using a range of doses and schedules. […] In preparation for an efficacy combination study, the Azacitidine and Cytarabine single agent activity in a MV4-11 model was determined.
(§3) 35 mg/kg/day EPZ-5676 was administered by continous IV (CIV) infusion while Azacitdine and Cytarabine was dosed daily by intraperitoneal injection at 2 and 200 mg/kg respectively. […] The tumor volumes are represented as the median tumor volumes mm^3 of the group.

in vivo = conditions: nude, rat, ip
Method: as §2, §3

MV4-11 (MLL-AF4) cells [7] = experiment: Cellular differentiation assay (CD11b/CD14 flow cytometry) in MV4-11 cells; format: cell-based
Method: FIGS. 4A-4H are a series of schematics and graphs that depict the effect on cellular differentiation of AZA priming in AML cell lines. FIGS. 4A and 4B are a series of schematics that depict the experimental setup of the assays performed to determine differentiation and cell death. FIG. 4C depicts AZA dose response curves for an AML cell line panel. FIGS. 4D-4G are a series of flow cytometry assays that were performed to assess cellular differentiation and cell death in the NOMO-1 acute myeloid leukemia cell line. For the flow cytometry assays, Annexin V/7-AAD staining was used to assess cell death, and CD11b/CD14 antibodies were used to evaluate cellular differentiation. […] Flow cytometry assays were also performed to assess cellular differentiation and cell death following AZA priming followed by treatment of the cells with 0.5 μM EPZ-5676.
FIGS. 6A-6D are a series of flow cytometry graphs that depict cellular differentiation and cell death following treatment of MV4-11 (MLL-AF4) cells with vehicle or AZA priming followed by 0.5 μM EPZ-5676, or vehicle only conditions.

MEIS1 = MEIS1 mRNA expression in MV4-11 cell line; format: cell-based; conditions: with increased concentrations (dose dependent)
Method: FIGS. 1A-1D are a series of graphs that depict mRNA expression levels of MEIS1 (FIGS. 1A and 1C) and HOXA2 (FIGS. 1B and 1D) in the MV4-11 cell line following treatment with AZA (also referred to herein as Azacitidine) and EPZ-5676. The data depicted in FIGS. 1A and 1B are from assays in which various concentrations of EPZ-5676 or DMSO alone, in combination with 1 μM AZA QD×3, 0.3 μM AZA QD×3, or vehicle alone were contacted with the cultured MV4-11 cells. (QD=daily dosage; QD×3=three day treatment). […]

HOXA9 = HOXA9 expression; format: cell-based; conditions: dose dependent
Description: For example, a gene expression assay that can be used includes the steps of (1) culturing cells (e.g., EOL-1, KOPM-88, Molm13, MV411, LOUCY, SemK2, Reh, HL60, BV173, or Jurkat cells) in the presence or absence of a compound (e.g., Compound A2 and/or a DNMT inhibitor); (2) harvesting the cells; (3) extracting the RNA using methods known in the art (e.g., Qiagen RNeasy Kit); (4) synthesizing cDNA from the extracted RNA (e.g., Applied Biosystems reverse transcriptase kit); (5) preparing qPCR reactions using, for example, primers and probes (e.g., predesigned labeled primer and probe sets for HOXA9, FLT3, MEIS1, MEIS2, TBP, BCL, DOT1L, and β2-microglobulin from Applied Biosystems), synthesized sample cDNA, and qPCR master mix reagent (e.g., Applied Biosystems Taqman universal PCR master mix); (6) running samples on PCR machine (e.g., Applied Biosystems); (7) analysis of the data and calculation of relative gene expression.

H3K79me2 = H3K79me2 ChIP-qPCR in MV4-11 cells; format: cell-based; conditions: 0.5 μM EPZ-5676; 0.5 μM QD×3 AZA
Method: FIGS. 3A-3D are a series of graphs that contain data obtained from H3K79me2 ChIP-qPCR assays of MV4-11 (MLL-AF4) cells at various time points following exposure to either vehicle alone, vehicle and 0.5 μM EPZ-5676, or 0.5 μM QD×3 AZA and 0.5 μM EPZ-5676.

NOMO-1 (MLL-AF9) cells [8] = experiment: Cellular differentiation assay (CD11b/CD14) in NOMO-1 cells; format: cell-based; conditions: 0.5 μM EPZ-5676; day not given
Method: as §1

[9] = system: REH (non-rearranged control); experiment: Cell kill combination study in REH cells; format: cell-based; conditions: sensitive is defined as IC50 ≤ 3 μM
[10] = system: MLL rearranged leukemia xenograft; conditions: in vivo; cited from earlier work
[11] = system: histone H3K79 methylation; conditions: cited from earlier work
[12] = 0.5 μM EPZ-5676 with or without AZA priming, day not given
[13] = sensitive is defined as IC50 ≤ 3 μM

With `Nc1ncn([C@@H]2O[C@H](CO)[C@@H](O)[C@H]2O)c(=O)n1` [Azacitidine, reference compound] the “cell death in a dose response experiment” value (MV4-11 (MLL-AF4) cells [1]) was “AZA induces cell death in MV4-11 cells”, the “resistance of cell line to the agent” value (NOMO-1 (MLL-AF9) cells [2]) was “resistant” and the cell death (ML-2 (MLL-AF6) cells [3]) was “effect on cell death”. The “cellular differentiation (CD14+ differentiated cell population)” value (ML-2 (MLL-AF6) cells [4]) was “no effect”, the “cell death / cell kill” value (RS4;11 (MLL-AF4) cells [5]) was “effect on cell death” and the cellular differentiation (RS4;11 (MLL-AF4) cells [6]) was “no effect”. The “inhibition of subcutaneous MV4-11 tumor compared to vehicle control” value (MV4-11 tumors) was 50% and the MTD at 14 days (in vivo) was 2 mg/kg.

With `Nc1ccn([C@@H]2O[C@H](CO)[C@@H](O)[C@@H]2O)c(=O)n1` [Cytarabine] the “inhibition of subcutaneous MV4-11 tumor compared to vehicle control” value (MV4-11 tumors) was 50% and the MTD at 14 days (in vivo) was 200 mg/kg.

In the case of `CC(C)N(C[C@H]1O[C@@H](n2cnc3c(N)ncnc32)[C@H](O)[C@@H]1O)[C@H]1C[C@@H](CCc2nc3cc(C(C)(C)C)ccc3[nH]2)C1` [EPZ-5676, pinometostat], the cell death (MV4-11 (MLL-AF4) cells [1]; [12]) is reported as “no appreciable cell death”, the IC50 (MV4-11 (MLL-AF4) cells [1]; Homo sapiens, MV4-11, read-out: sensitivity of MV4-11 to EPZ-5676) is reported as ≤ 3000 nM and the “cell death in a dose response experiment” value (MV4-11 (MLL-AF4) cells [1]) is reported as “EPZ-5676 does not induce cell death in”. For the same compound, the “cellular differentiation (CD14 positive population)” value (MV4-11 (MLL-AF4) cells [7]; [12]) was “no increase”, the “CD11b+ cell population” value (MV4-11 (MLL-AF4) cells [7]; Day 6) was “Depletion of CD11b+ cell” and the “CD14+ cell population” value (MV4-11 (MLL-AF4) cells [7]; Day 6) was “No increase in CD14+”. The “CD11b+ cell population” value (MV4-11 (MLL-AF4) cells [7]; Day 10) was “Depletion of CD11b+”, the “CD14+ cell population” value (MV4-11 (MLL-AF4) cells [7]; Day 10) was “No increase in CD14+—” and the “MEIS1 mRNA levels / expression” value (MEIS1) was “reduces”. For the same compound, the HOXA9 expression (HOXA9) was “reduces”, the “H3K79me2 signal / mark (ChIP-qPCR, MEIS1 and HOXA9 genes)” value (H3K79me2) was “reduced; also recorded: single agent both decrease H3K79me2” and the cell death (NOMO-1 (MLL-AF9) cells [2]; 0.5 μM EPZ-5676, day not given) was “no appreciable cell death”. The cell kill (NOMO-1 (MLL-AF9) cells [2]; Day 6) was “No cell kill with EPZ-”, the cell kill (NOMO-1 (MLL-AF9) cells [2]; Day 10) was “No cell kill with EPZ-” and the “resistance of cell line to the agent” value (NOMO-1 (MLL-AF9) cells [2]) was “resistant”. For the same compound, the “amount of CD14+ cells” value (NOMO-1 (MLL-AF9) cells [8]) was “increase”, the cell death (ML-2 (MLL-AF6) cells [3]) was “no cell death” and the cell kill (ML-2 (MLL-AF6) cells [3]; Day 6) was “No cell kill with EPZ-”. The cell kill (ML-2 (MLL-AF6) cells [3]; Day 10) was “No cell kill with EPZ-”, the “resistance of cell line to the agent” value (ML-2 (MLL-AF6) cells [3]; [13]) was “resistant” and the “cellular differentiation (CD14+ differentiated cell population)” value (ML-2 (MLL-AF6) cells [4]) was “no cell differentiation; also recorded: population as compared to no”. The differentiation (ML-2 (MLL-AF6) cells [4]; Day 6) was “No differentiation”, the differentiation (ML-2 (MLL-AF6) cells [4]; Day 10) was “No differentiation” and the “cell death / cell kill” value (RS4;11 (MLL-AF4) cells [5]) was “no cell death”. The cell kill (RS4;11 (MLL-AF4) cells [5]; Day 6) was “No cell kill with EPZ-”, the cell kill (RS4;11 (MLL-AF4) cells [5]; Day 10) was “No cell kill with EPZ-” and the “resistance of cell line to the agent” value (RS4;11 (MLL-AF4) cells [5]; [13]) was “resistant”. The cellular differentiation (RS4;11 (MLL-AF4) cells [6]) was “no cell differentiation”, the differentiation (RS4;11 (MLL-AF4) cells [6]; Day 6) was “No differentiation” and the differentiation (RS4;11 (MLL-AF4) cells [6]; Day 10) was “No differentiation”. For the same compound, the “resistance of cell line to the agent” value [9] was “resistant”, the tumor response [10] was “complete tumor regressions” and the “inhibition of intracellular histone H3K79 methylation” value [11] was “selectively inhibits”.

From patent publication US20180028552A1, “COMBINATION THERAPY FOR TREATING CANCER” (Epizyme, Inc., priority 2015, published 2018)
